From patent US9670261B2 (Sanofi, priority 2012, dated 2017)
Read-outs that look alike come from different tables or passages of the source. *1 amine or outer side, *2 acyl side, *3 side chain or, on linkers, in order; H or OH if unused. Where a SMILES comes first, the peptide text is derived from it. Side-chain parts run from the residue outwards. [ ]: non-standard residue; d: D form. The star is where a group is joined. γGlu = O=C(O)[C@H](CCC(=O)[*:2])N[*:1]; Stearoyl = CCCCCCCCCCCCCCCCCC(=O)*; Palmitoyl = CCCCCCCCCCCCCCCC(=O)*; Aib = CC(C)(N)C(=O)O

Target: T1, human GLP-1 receptor (Homo sapiens, UniProt P43220)
T1 construct: expressed in transfected cells
T1 sequence (P43220 24-463): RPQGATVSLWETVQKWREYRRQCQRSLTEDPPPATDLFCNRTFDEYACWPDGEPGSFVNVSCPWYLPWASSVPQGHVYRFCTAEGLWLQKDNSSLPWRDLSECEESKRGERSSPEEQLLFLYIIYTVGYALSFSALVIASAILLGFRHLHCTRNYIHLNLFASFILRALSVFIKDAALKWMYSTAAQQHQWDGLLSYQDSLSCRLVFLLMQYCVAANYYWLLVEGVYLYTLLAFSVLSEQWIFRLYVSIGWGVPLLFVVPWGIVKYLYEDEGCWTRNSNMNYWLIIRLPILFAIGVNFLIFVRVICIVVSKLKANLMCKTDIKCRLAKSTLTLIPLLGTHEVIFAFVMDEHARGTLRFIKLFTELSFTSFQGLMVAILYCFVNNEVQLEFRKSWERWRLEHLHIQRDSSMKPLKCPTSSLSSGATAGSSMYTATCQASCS
Assay: cAMP response (HTRF) of HEK-293 cells stably expressing human GLP-1 receptor
Assay type: cell-based
Details: read-out: EC50 hGLP-1 R
Protocol: cAMP content of cells was determined using a kit from Cisbio Corp. (cat. no. 62AM4PEC) based on HTRF (Homogenous Time Resolved Fluorescence). For preparation, cells were split into T175 culture flasks and grown overnight to near confluency in medium (DMEM/10% FBS). Medium was then removed and cells washed with PBS lacking calcium and magnesium, followed by proteinase treatment with accutase (Sigma-Aldrich cat. no. A6964). Detached cells were washed and resuspended in assay buffer (1×HBSS; 20 mM HEPES, 0.1% BSA, 2 mM IBMX) and cellular density determined. They were then diluted to 400000 cells/ml and 25 μl-aliquots dispensed into the wells of 96-well plates. For measurement, 25 μl of test compound in assay buffer was added to the wells, followed by incubation for 30 minutes at room temperature.

**Q.** For `CCCCCCCCCCCCCCCCCC(=O)N[C@@H](CCC(=O)NCCCC[C@H](NC(=O)[C@H](CCC(N)=O)NC(=O)[C@@H](NC(=O)[C@H](CO)NC(=O)[C@H](CC(C)C)NC(=O)[C@H](CC(=O)O)NC(=O)[C@H](CO)NC(=O)[C@@H](NC(=O)[C@H](Cc1ccccc1)NC(=O)[C@@H](NC(=O)CNC(=O)[C@H](CCC(=O)O)NC(=O)C(C)(C)NC(=O)[C@@H](N)Cc1ccc(O)cc1)[C@@H](C)O)[C@@H](C)O)[C@@H](C)CC)C(=O)N[C@@H](CCC(=O)O)C(=O)N[C@@H](CCCCN)C(=O)N[C@@H](CCCNC(=N)N)C(=O)N[C@@H](C)C(=O)N[C@@H](C)C(=O)N[C@@H](CCC(N)=O)C(=O)N[C@@H](CCC(=O)O)C(=O)N[C@@H](Cc1ccccc1)C(=O)N[C@H](C(=O)N[C@@H](CCC(=O)O)C(=O)N[C@@H](Cc1c[nH]c2ccccc12)C(=O)N[C@@H](CC(C)C)C(=O)N[C@@H](CCCCN)C(=O)N[C@@H](CC(N)=O)C(=O)N[C@H](C(=O)NCC(=O)N1CCC[C@H]1C(=O)N[C@@H](CO)C(=O)N[C@@H](CO)C(=O)NCC(=O)N[C@@H](C)C(=O)N1CCC[C@H]1C(=O)N1CCC[C@H]1C(=O)N1CCC[C@H]1C(=O)N[C@@H](CO)C(N)=O)[C@@H](C)O)[C@@H](C)CC)C(=O)O` [SEQ ID NO: 19, Y-Aib-E-G-T-F-T-S-D-L-S-I-Q-K(γE-x70)-EKRAAQEFIEWLKNTGPSSGAPPPS-NH2] (H-Y[Aib]EGTFTSDLSIQK([γGlu-Stearoyl])EKRAAQEFIEWLKNTGPSSGAPPPS-NH2), which EC50 (Table 7, cAMP formation) is on record?
**A.** 4 pM

**Q.** `CCCCCCCCCCCCCCCC(=O)N[C@@H](CCC(=O)NCCCC[C@H](NC(=O)[C@H](CCC(N)=O)NC(=O)[C@@H](NC(=O)[C@H](CO)NC(=O)[C@H](CC(C)C)NC(=O)[C@H](CC(=O)O)NC(=O)[C@H](CO)NC(=O)[C@@H](NC(=O)[C@H](Cc1ccccc1)NC(=O)[C@@H](NC(=O)CNC(=O)[C@H](CCC(=O)O)NC(=O)C(C)(C)NC(=O)[C@@H](N)Cc1ccc(O)cc1)[C@@H](C)O)[C@@H](C)O)[C@@H](C)CC)C(=O)N[C@@H](CCC(=O)O)C(=O)N[C@@H](CO)C(=O)N[C@@H](CCCNC(=N)N)C(=O)N[C@@H](C)C(=O)N[C@@H](C)C(=O)NC(C)(C)C(=O)N[C@@H](CC(=O)O)C(=O)N[C@@H](Cc1ccccc1)C(=O)N[C@H](C(=O)N[C@@H](CCC(=O)O)C(=O)N[C@@H](Cc1c[nH]c2ccccc12)C(=O)N[C@@H](CC(C)C)C(=O)N[C@@H](CCCCN)C(=O)N[C@@H](CC(N)=O)C(=O)N[C@H](C(=O)NCC(=O)N1CCC[C@H]1C(=O)N[C@@H](CO)C(=O)N[C@@H](CO)C(=O)NCC(=O)N[C@@H](C)C(=O)N1CCC[C@H]1C(=O)N1CCC[C@H]1C(=O)N1CCC[C@H]1C(=O)N[C@@H](CO)C(N)=O)[C@@H](C)O)[C@@H](C)CC)C(=O)O` [SEQ ID NO: 24, Y-Aib-E-G-T-F-T-S-D-L-S-I-Q-K(γE-x53)-E-S-R-A-A-Aib-D-F-I-E-W-L-K-N-T-G-P-S-S-G-A-P-P-P-S-NH2] (H-Y[Aib]EGTFTSDLSIQK([γGlu-Palmitoyl])ESRAA[Aib]DFIEWLKNTGPSSGAPPPS-NH2) was tested. Which EC50 (Table 7, cAMP formation) did it give?
**A.** 13.5 pM

**Q.** With `CCCCCCCCCCCCCCCC(=O)N[C@@H](CCC(=O)NCCCC[C@H](NC(=O)[C@H](CCC(N)=O)NC(=O)[C@@H](NC(=O)[C@H](CO)NC(=O)[C@H](CC(C)C)NC(=O)[C@H](CC(=O)O)NC(=O)[C@H](CO)NC(=O)[C@@H](NC(=O)[C@H](Cc1ccccc1)NC(=O)[C@@H](NC(=O)CNC(=O)[C@H](CCC(N)=O)NC(=O)C(C)(C)NC(=O)[C@@H](N)Cc1ccc(O)cc1)[C@@H](C)O)[C@@H](C)O)[C@@H](C)CC)C(=O)N[C@@H](CC(=O)O)C(=O)N[C@@H](CCCCN)C(=O)N[C@@H](CCCNC(=N)N)C(=O)N[C@@H](C)C(=O)N[C@@H](C)C(=O)N[C@@H](CCC(N)=O)C(=O)N[C@@H](CC(=O)O)C(=O)N[C@@H](Cc1ccccc1)C(=O)N[C@H](C(=O)N[C@@H](CCC(=O)O)C(=O)N[C@@H](Cc1c[nH]c2ccccc12)C(=O)N[C@@H](CC(C)C)C(=O)N[C@@H](CCCCN)C(=O)N[C@@H](C)C(=O)NCC(=O)NCC(=O)N1CCC[C@H]1C(=O)N[C@@H](CO)C(=O)N[C@@H](CO)C(=O)NCC(=O)N[C@@H](C)C(=O)N1CCC[C@H]1C(=O)N1CCC[C@H]1C(=O)N1CCC[C@H]1C(=O)N[C@@H](CO)C(N)=O)[C@@H](C)CC)C(=O)O` [SEQ ID NO: 28, Y-Aib-Q-G-T-F-T-S-D-L-S-I-Q-K(γE-x53)-DKRAAQDFIEWLKAGGPSSGAPPPS-NH2] (H-Y[Aib]QGTFTSDLSIQK([γGlu-Palmitoyl])DKRAAQDFIEWLKAGGPSSGAPPPS-NH2) as the compound, how does the EC50 (Table 7, cAMP formation) read?
**A.** 3.2 pM

**Q.** `CCCCCCCCCCCCCCCC(=O)N[C@@H](CCC(=O)NCCCC[C@H](NC(=O)[C@H](CCC(N)=O)NC(=O)[C@@H](NC(=O)[C@H](CO)NC(=O)[C@H](CC(C)C)NC(=O)[C@H](CC(=O)O)NC(=O)[C@H](CO)NC(=O)[C@@H](NC(=O)[C@H](Cc1ccccc1)NC(=O)[C@@H](NC(=O)CNC(=O)[C@H](CCC(N)=O)NC(=O)C(C)(C)NC(=O)[C@@H](N)Cc1ccc(O)cc1)[C@@H](C)O)[C@@H](C)O)[C@@H](C)CC)C(=O)N[C@@H](CC(=O)O)C(=O)N[C@@H](CO)C(=O)N[C@@H](CCCNC(=N)N)C(=O)N[C@@H](C)C(=O)N[C@@H](C)C(=O)N[C@@H](CCC(N)=O)C(=O)N[C@@H](CCC(=O)O)C(=O)N[C@@H](Cc1ccccc1)C(=O)N[C@H](C(=O)N[C@@H](CCC(=O)O)C(=O)N[C@@H](Cc1c[nH]c2ccccc12)C(=O)N[C@@H](CC(C)C)C(=O)N[C@@H](CCCCN)C(=O)N[C@@H](C)C(=O)NCC(=O)NCC(=O)N1CCC[C@H]1C(=O)N[C@@H](CO)C(=O)N[C@@H](CO)C(=O)NCC(=O)N[C@@H](C)C(=O)N1CCC[C@H]1C(=O)N1CCC[C@H]1C(=O)N1CCC[C@H]1C(=O)N[C@@H](CO)C(N)=O)[C@@H](C)CC)C(=O)O` [SEQ ID NO: 29, Y-Aib-Q-G-T-F-T-S-D-L-S-I-Q-K(γE-x53)-DSRAAQEFIEWLKAGGPSSGAPPPS-NH2] (H-Y[Aib]QGTFTSDLSIQK([γGlu-Palmitoyl])DSRAAQEFIEWLKAGGPSSGAPPPS-NH2) was tested. Which EC50 (Table 7, cAMP formation) did it give?
**A.** 7 pM

**Q.** With `CCCCCCCCCCCCCCCC(=O)N[C@@H](CCC(=O)NCCCC[C@H](NC(=O)[C@H](CCC(N)=O)NC(=O)[C@@H](NC(=O)[C@H](CO)NC(=O)[C@H](CC(C)C)NC(=O)[C@H](CC(=O)O)NC(=O)[C@H](CO)NC(=O)[C@@H](NC(=O)[C@H](Cc1ccccc1)NC(=O)[C@@H](NC(=O)CNC(=O)[C@H](CCC(=O)O)NC(=O)C(C)(C)NC(=O)[C@@H](N)Cc1ccc(O)cc1)[C@@H](C)O)[C@@H](C)O)[C@@H](C)CC)C(=O)N[C@@H](CCC(=O)O)C(=O)N[C@@H](CO)C(=O)N[C@@H](CCCNC(=N)N)C(=O)N[C@@H](C)C(=O)N[C@@H](C)C(=O)N[C@@H](CCC(N)=O)C(=O)N[C@@H](CCC(=O)O)C(=O)N[C@@H](Cc1ccccc1)C(=O)N[C@H](C(=O)N[C@@H](CCC(=O)O)C(=O)N[C@@H](Cc1c[nH]c2ccccc12)C(=O)N[C@@H](CC(C)C)C(=O)N[C@@H](CCCCN)C(=O)N[C@@H](C)C(=O)NCC(=O)NCC(=O)N1CCC[C@H]1C(=O)N[C@@H](CO)C(=O)N[C@@H](CO)C(=O)NCC(=O)N[C@@H](C)C(=O)N1CCC[C@H]1C(=O)N1CCC[C@H]1C(=O)N1CCC[C@H]1C(=O)N[C@@H](CO)C(N)=O)[C@@H](C)CC)C(=O)O` [SEQ ID NO: 39, Y-Aib-E-G-T-F-T-S-D-L-S-I-Q-K(γE-x53)-ESRAAQEFIEWLKAGGPSSGAPPPS-NH2] (H-Y[Aib]EGTFTSDLSIQK([γGlu-Palmitoyl])ESRAAQEFIEWLKAGGPSSGAPPPS-NH2) as the compound, how does the EC50 (Table 7, cAMP formation) read?
**A.** 4.3 pM

**Q.** `CC[C@H](C)[C@H](NC(=O)[C@H](Cc1ccccc1)NC(=O)[C@H](CC(=O)O)NC(=O)[C@H](CCC(N)=O)NC(=O)[C@H](C)NC(=O)[C@H](C)NC(=O)[C@H](CCCNC(=N)N)NC(=O)[C@H](CO)NC(=O)[C@H](CCC(=O)O)NC(=O)[C@H](CC(C)C)NC(=O)[C@H](CCC(N)=O)NC(=O)[C@@H](NC(=O)[C@H](CO)NC(=O)[C@H](CC(C)C)NC(=O)[C@H](CC(=O)O)NC(=O)[C@H](CO)NC(=O)[C@@H](NC(=O)[C@H](Cc1ccccc1)NC(=O)[C@@H](NC(=O)CNC(=O)[C@H](CCC(N)=O)NC(=O)C(C)(C)NC(=O)[C@@H](N)Cc1ccc(O)cc1)[C@@H](C)O)[C@@H](C)O)[C@@H](C)CC)C(=O)N[C@@H](CCC(=O)O)C(=O)N[C@@H](Cc1c[nH]c2ccccc12)C(=O)N[C@@H](CC(C)C)C(=O)N[C@@H](CCCCN)C(=O)N[C@@H](C)C(=O)NCC(=O)NCC(=O)N1CCC[C@H]1C(=O)N[C@@H](CO)C(=O)N[C@@H](CO)C(=O)NCC(=O)N[C@@H](C)C(=O)N1CCC[C@H]1C(=O)N1CCC[C@H]1C(=O)N1CCC[C@H]1C(=O)N[C@@H](CO)C(N)=O` [SEQ ID NO: 40, Y-Aib-QGTFTSDLSIQLESRAAQDFIEWLKAGGPSSGAPPPS-NH2, reference compound] (H-Y[Aib]QGTFTSDLSIQLESRAAQDFIEWLKAGGPSSGAPPPS-NH2; N-terminus assumed) was tested. Which EC50 (Table 8, functionalized vs non-functionalized position 14) did it give?
**A.** 3.2 pM
